{"source": "patent US20230321063A1", "about": "“COMPOSITIONS AND METHODS TO REDUCE NEUROINFLAMMATION” (Seattle Children's Hospital d/b/a Seattle Children's …, priority 2020, published 2023)", "key": {"[1]": {"test_system": "microglia in mixed neonatal brain-cell cultures", "test": "Fraction of microglia in mixed primary brain cultures (Iba1 staining)", "format": "cell-based, mouse", "protocol": "Mixed brain cell culturing and staining. Briefly, using sterile technique, brains were removed from neonatal pups into ice-cold HBSS (Gibco cat. #14025076). Brains were washed three times in cold PBS. After the third wash, brains were minced using surgical scissors into small, fine pieces. The minced brain was centrifuged at 100 g for 5 min. Once pelleted, PBS was removed and 0.05% trypsin/EDTA (Gibco) was added. The tissue in trypsin/EDTA was then incubated at 37° C. with gentle shaking for 15-30 min, with intermittent mixing and supplemental mincing, until the solution was homogenous and without tissue segments. After incubation, the minced tissue was placed back into the centrifuge at 100 g 5 min. Pellet was washed 3× with cold PBS before adding fresh media to each tube. The tissue was further dissociated using 1000 μL pipet until the solution became cloudy. The sample was washed through a sterile 70-micron cell strainer (Corning) into a 50 mL falcon tube, then plated onto T75 poly-d-lysine coated Nunclon flasks (Nunc EasyFlask132704) at a ratio of one brain to two flasks. After 24 hours, dead cell/debris were washed and media replaced. Cells were then grown for 1 additional day, split onto multi-well plates with poly-d-lysine coated coverslips (Cellware 12 mm round coverslips) at 25% confluence with ABI-009 or pexidartinib (for dose-response) added. […]"}, "[2]": {"test_system": "control and Ndufs4(KO) animals", "test": "Observation of coat color under treatment", "format": "in vivo, mouse", "details": "higher doses (of 100, 200, 300 mg/kg/day) in chow", "protocol": "To directly test this model, Ndufs4(KO) and control animals were treated with 100, 200, or 300 mg/kg/day pexidartinib in normal mouse chow (dosing is approximated based on food consumption, see Experimental Methods in Example 1)."}}, "note": "“Also recorded” adds a separate entry of the source.", "data": [{"smiles": "FC(F)(F)c1ccc(CNc2ccc(Cc3c[nH]c4ncc(Cl)cc34)cn2)cn1", "note": "[pexidartinib, 5-[(5-chloro-1H-pyrrolo[2,3-b]pyridin-3-yl)methyl]-N-[[6-(trifluoromethyl)pyridin-3-yl]methyl]pyridin-2-amine]", "values": [{"measurement": "maximum effect on microglia", "setting": "[1]", "result": "nearly complete depletion of microglia"}, {"measurement": "fraction of microglia present in mixed neonatal brain-cell cultures", "setting": "[1]; dose-response, fixed on day 7", "result": "dose-dependently reduced"}, {"measurement": "coat/fur color", "setting": "[2]", "result": "turns fur white; also recorded: change in mouse coat color"}, {"measurement": "coat/fur color", "setting": "[2]; listed as Pexidartinib", "result": "caused animal fur to whiten"}]}]}
